Experiments:
[1] = tested on: ACC deaminase from bacterial strain 392 (B27448, Peru soil); details: read-out: Km (ACC), crude desalted extract, Tris pH 8.0, 30° C., double reciprocal plot
Experimental: (§1) The Km for the ACC deaminases isolated from the various soil sources was determined using crude, desalted extracts. Individual strains of bacteria were grown in liquid media containing 4 g KH2 PO4, 6.5 g K2 HPO4, 1 g MgSO4.7H2 O, 2 g glucose, 1 mg FeSO4, 1 mg MnCl2, 1 mg ZnSO4, 1 mg CuSO4, 1 mg CaCl2, and 300 mg ACC, all in 1 liter H2 O. Cells were grown for 2 to 3 days at 30° C. Cells were pelleted by centrifugation and resuspended in extraction buffer containing 0.1M phosphate, pH 7.5, 1 mM EDTA, 0.1% β-mercaptoethanol. The cells were broken with a French Press, 1000 psi, and the cell debris was pelleted by centrifugation. […] Glycerol was added to the extract (20% v/v) and enzyme solutions were stored at -20° C. ACC deaminase enzyme assays were conducted as described in the Examples to follow. The assay mixture contained 100 μl of 0.2M Tris buffer, pH 8.0, 30 μl of 500 mM ACC solution, and enzyme solution to make a final volume of 200 μl. Reactions were run for 10 minutes at 30° C. The reaction was stopped with 1.8 ml of 2N HCl. After adding 300 μl 0.1% 2,4-dinitrophenylhydrazine, the mixture was incubated for 15 minutes at 30° C. The solution was then made basic by adding 2 ml of 2N NaOH. The optical density of the resulting brownish-red solution was determined at 540 nm with a spectrophotometer.
(§2) The kinetic value, Km, for ACC deaminase was determined against ACC as the enzyme substrate for each of the ACC deaminases isolated. […] An estimated Km was determined for each extracted enzyme with ACC at sub-saturating concentrations. […] Actual Km values were then determined for each extract using ACC concentrations between 0.2× and 2× of the estimated Km, or ACC concentrations between 1 and 10 mM ACC. Km values were calculated from double reciprocal plots, plotting the reciprocal of the substrate concentration on the x-axis and the reciprocal of the velocity (α-ketobutyrate formed) on the y-axis.

[2] = tested on: ACC deaminase from bacterial strain PR-1 (B27813, Puerto Rico soil); details: read-out: Km (ACC), crude desalted extract, Tris pH 8.0, 30° C., double reciprocal plot
Experimental: as §1, §2

[3] = tested on: ACC deaminase from bacterial strain 391 (B27447, Malaysia soil); details: read-out: Km (ACC), crude desalted extract, Tris pH 8.0, 30° C., double reciprocal plot
Experimental: as §1, §2

[4] = tested on: ACC deaminase from bacterial strain 393 (B27449, St. Charles soil); details: read-out: Km (ACC), crude desalted extract, Tris pH 8.0, 30° C., double reciprocal plot
Experimental: as §1, §2

[5] = tested on: ACC deaminase from bacterial strain 401 (B27457, St. Charles soil, ACC enriched); details: read-out: Km (ACC), crude desalted extract, Tris pH 8.0, 30° C., double reciprocal plot
Experimental: as §1, §2

[6] = tested on: ACC deaminase from Pseudomonas isolate 3F2 (gene SEQ ID NO:15, amino acid SEQ ID NO:16); details: read-out: Km (ACC); strain 3F2; crude desalted extract, Tris pH 8.0, 30° C., double reciprocal plot
Experimental: as §1, §2

[7] = tested on: ACC deaminase from bacterial strain 388 (B27444, St. Charles soil, ACC enriched); details: read-out: Km (ACC), crude desalted extract, Tris pH 8.0, 30° C., double reciprocal plot
Experimental: as §1, §2

[8] = tested on: ACC deaminase from bacterial strain T44 (B27817, Tanzania soil); details: read-out: Km (ACC), crude desalted extract, Tris pH 8.0, 30° C., double reciprocal plot
Experimental: as §1, §2

Question: For `NC1(C(=O)O)CC1` [ACC, 1-aminocyclopropane-1-carboxylic acid], which Km [1] is on record?
Answer: 7.1 mM

Question: What about the Km [2] of the same molecule?
Answer: 4.1 mM

Question: What about the Km [3] of the same molecule?
Answer: 17.4 mM

Question: What about the Km [4] of the same molecule?
Answer: 5.9 mM

Question: And the Km [5]?
Answer: 7.8 mM

Question: And the Km [6]?
Answer: 5.8 mM

Question: And the Km [7]?
Answer: 8.6 mM

Question: What about the Km [8] of the same molecule?
Answer: 11.8 mM

Reference: patent publication US5512466A, “Control of fruit ripening and senescence in plants” (Monsanto Company, priority 1991, dated 1996)
